Data from the NIST ThermoML archive (doi:10.1021/je700215z).

How the values were obtained:
[1] = xn = mol fraction of the nth substance listed

CCCCO [butan-1-ol]
Conditions | surface tension liquid-gas [mN/m]
283.15 K | 25.55
288.15 K | 25.12
293.15 K | 24.78
298.15 K | 24.25
303.15 K | 23.95
308.15 K | 23.55
313.15 K | 23.15

CCC(C)O (centres undefined) [butan-2-ol]
Conditions | surface tension liquid-gas [mN/m]
283.15 K | 24.37
288.15 K | 23.95
293.15 K | 23.56
298.15 K | 23.08
303.15 K | 22.75
308.15 K | 22.39
313.15 K | 21.97

CCC(C)O (centres undefined) [butan-2-ol] + CCCCCC
surface tension liquid-gas [mN/m], [1]
Conditions | 283.15 K | 288.15 K | 293.15 K | 298.15 K | 303.15 K | 308.15 K | 313.15 K
x1 = 0.0493 | 19.75 | 19.16 | 18.62 | 18.11 | 17.52 | 16.69 | 16.33
x1 = 0.1057 | 19.84 | 19.24 | 18.7 | 18.14 | 17.53 | 16.66 | 16.26
x1 = 0.2083 | 20 | 19.36 | 18.8 | 18.21 | 17.62 | 16.81 | 16.41
x1 = 0.3004 | 20.18 | 19.52 | 18.95 | 18.37 | 17.82 | 17.08 | 16.7
x1 = 0.4002 | 20.43 | 19.77 | 19.21 | 18.67 | 18.16 | 17.5 | 17.13
x1 = 0.4962 | 20.72 | 20.13 | 19.6 | 19.09 | 18.6 | 18.01 | 17.62
x1 = 0.5948 | 21.1 | 20.57 | 20.13 | 19.61 | 19.18 | 18.6 | 18.22
x1 = 0.6968 | 21.64 | 21.2 | 20.76 | 20.26 | 19.84 | 19.33 | 18.92
x1 = 0.8018 | 22.35 | 21.9 | 21.52 | 21.04 | 20.67 | 20.18 | 19.74
x1 = 0.8964 | 23.18 | 22.74 | 22.34 | 21.88 | 21.52 | 21.12 | 20.73
x1 = 0.9492 | 23.73 | 23.31 | 22.9 | 22.43 | 22.11 | 21.73 | 21.33

CCO [ethanol]
Conditions | surface tension liquid-gas [mN/m]
283.15 K | 23.12
288.15 K | 22.75
293.15 K | 22.28
298.15 K | 21.86
303.15 K | 21.49
308.15 K | 21.15
313.15 K | 20.66

CCCCCC [hexane]
Conditions | surface tension liquid-gas [mN/m]
283.15 K | 19.63
288.15 K | 19.04
293.15 K | 18.52
298.15 K | 18.06
303.15 K | 17.53
308.15 K | 16.74
313.15 K | 16.47

CCCCCC [hexane] + CCCCO
surface tension liquid-gas [mN/m], [1]
Conditions | 283.15 K | 288.15 K | 293.15 K | 298.15 K | 303.15 K | 308.15 K | 313.15 K
x2 = 0.0519 | 19.78 | 19.15 | 18.6 | 18.11 | 17.55 | 16.75 | 16.4
x2 = 0.0875 | 19.87 | 19.26 | 18.7 | 18.2 | 17.61 | 16.8 | 16.43
x2 = 0.1959 | 20.17 | 19.58 | 19.03 | 18.52 | 17.92 | 17.13 | 16.74
x2 = 0.2999 | 20.41 | 19.88 | 19.35 | 18.84 | 18.28 | 17.52 | 17.12
x2 = 0.399 | 20.69 | 20.14 | 19.65 | 19.1 | 18.62 | 17.91 | 17.48
x2 = 0.4914 | 20.93 | 20.4 | 19.96 | 19.43 | 18.92 | 18.29 | 17.83
x2 = 0.5974 | 21.44 | 20.9 | 20.44 | 19.91 | 19.43 | 18.82 | 18.39
x2 = 0.7044 | 22.14 | 21.63 | 21.18 | 20.6 | 20.17 | 19.59 | 19.12
x2 = 0.8027 | 23.09 | 22.54 | 22.13 | 21.54 | 21.13 | 20.6 | 20.15
x2 = 0.9088 | 24.37 | 23.85 | 23.44 | 22.87 | 22.51 | 22.06 | 21.6
x2 = 0.953 | 24.93 | 24.47 | 24.07 | 23.53 | 23.18 | 22.76 | 22.37

CCCCCC [hexane] + CCO
surface tension liquid-gas [mN/m], [1]
Conditions | 283.15 K | 288.15 K | 293.15 K | 298.15 K | 303.15 K | 308.15 K | 313.15 K
x2 = 0.0855 | 19.7 | 19.11 | 18.57 | 18.03 | 17.49 | 16.67 | 16.3
x2 = 0.1006 | 19.74 | 19.11 | 18.56 | 18.03 | 17.48 | 16.66 | 16.29
x2 = 0.2107 | 19.73 | 19.1 | 18.55 | 18.01 | 17.42 | 16.64 | 16.2
x2 = 0.2928 | 19.77 | 19.18 | 18.57 | 18.03 | 17.46 | 16.68 | 16.24
x2 = 0.4128 | 19.9 | 19.29 | 18.71 | 18.15 | 17.57 | 16.85 | 16.38
x2 = 0.5071 | 20.08 | 19.46 | 18.84 | 18.29 | 17.72 | 17.04 | 16.56
x2 = 0.5909 | 20.26 | 19.67 | 19.02 | 18.45 | 17.93 | 17.26 | 16.74
x2 = 0.7036 | 20.61 | 20.02 | 19.36 | 18.8 | 18.26 | 17.7 | 17.21
x2 = 0.8032 | 21.05 | 20.46 | 19.88 | 19.32 | 18.82 | 18.31 | 17.85
x2 = 0.9021 | 21.78 | 21.28 | 20.73 | 20.22 | 19.81 | 19.38 | 18.91
x2 = 0.932 | 22.11 | 21.64 | 21.11 | 20.64 | 20.22 | 19.82 | 19.36
